Laboratory results published in paper PMC9410537, “Discovery of Ircinianin Lactones B and C—Two New Cyclic Sesterterpenes from the Marine Sponge Ircinia wistarii” (Marine Drugs, 2022).

Tested on: P. falciparum NF54 strain
Assay: In vitro activity against erythrocytic stages of P. falciparum (3H-hypoxanthine incorporation assay)
Format: cell-based
Settings: Plasmodium falciparum, Table 2 values are means of two independent assays
Description: Activity against P. falciparum. In vitro activity against erythrocytic stages of P. falciparum was determined using a ^3H-hypoxanthine incorporation assay against the drug-sensitive NF54 strain [76]. Compounds were dissolved in DMSO at 10 mg/mL and further diluted in medium before being added to parasite cultures incubated in RPMI 1640 medium without hypoxanthine, supplemented with HEPES (5.94 g/L), NaHCO3 (2.1 g/L), neomycin (100 U/mL), Albumax^R (5 g/L) and washed human red cells A^+ at 2.5% haematocrit (0.3% parasitaemia). Serial drug dilutions ranged from 100 to 0.002 μg/mL. The 96-well plates were incubated in a humidified atmosphere at 37 °C; 4% CO2, 3% O2, 93% N2. After 48 h 50 μL of ^3H-hypoxanthine (=0.5 μCi) was added to each well of the plate. The plates were incubated for a further 24 h under the same conditions. The plates were then harvested with a Betaplate™ cell harvester (Wallac, Zurich, Switzerland) and the red blood cells were transferred onto a glass fiber filter then washed with distilled water. The dried filters were inserted into a plastic foil with 10 mL of scintillation fluid and counted in a Betaplate™ liquid scintillation counter (Wallac, Zurich, Switzerland). IC50 values were calculated from sigmoidal inhibition curves by linear regression using Microsoft Excel. Chloroquine diphosphate (Sigma C6628) was used as control (IC50 0.006 ± 0.002 μM).

For `CC1=C[C@@H](/C=C(\C)CCCc2ccoc2)[C@]2(OC(=O)C(C)=C2O)[C@@H]2[C@@H](C)CC[C@@H]12` [compound 1, Ircinianin], which IC50 is on record?
Its IC50 is 25.4 µM.
